# Test: Human HepG2 cell viability assay in 384 well format
# Type: toxicity, cell-based
# Set-up: dose 125 nL, time 70.5 hour; concentration not given beside the values
# Conditions: HepG2 cells, read-out: Inhibition
row,SMILES,cytotoxicity at 70.5 h [%]
1,N#Cc1ccc(CN2CCCN(CCCn3cncn3)CC2)cc1,3.01
2,Cc1cc(CNC(=O)NCc2cccs2)no1,-5.03
3,CCCn1cc(Cl)c(C(=O)N2C[C@@H](O)[C@H](NC(C)=O)C2)n1,-8.89
4,COCC1CCN(CCOc2ccc(C#N)cc2OC)CC1,20.7
5,Cn1ccc(-c2cc(C(=O)N3CCCCC3)c3ccccn23)n1,4.75
6,c1cnc(N2CCC3(CCCN(Cc4ccncc4)C3)CC2)nc1,18.3
7,CS(=O)(=O)NCCC1CCCCN1C(=O)NCCc1ccccn1 (centres undefined),-14.3
8,O=C(Nc1cccc2ccccc12)N1CCC(N2CCSCC2)CC1,-0.0142
9,COCC1COCCC12CCN(C(=O)CCc1ccccc1C)CC2 (centres undefined),-5.26
10,O=c1oc(-c2ccc(F)cc2)nn1CC1CCCCO1 (centres undefined),-3.87
11,O=C(C1CC(F)(F)C1)N1C[C@@H]2CN(CC3CC3)CCO[C@@H]2C1,26
12,Cc1cc(NC(=O)CN2CCOC(Cn3nc(C)cc3C)C2)n(C)n1 (centres undefined),-8.28
13,CCC[C@H]1CN(S(=O)(=O)c2ccccc2)C[C@@H]1N,16.4
14,CCOCC1CN(S(C)(=O)=O)Cc2cnn(C)c21 (centres undefined),-11.1
15,CC(C)c1ccc(CS(=O)(=O)CC(=O)NCc2ccccc2F)cc1,-17.3
16,Cc1n[nH]c(C)c1C1CCCN1C(=O)CNC(=O)C(C)(C)C (centres undefined),-0.174
17,COc1cc(OC)c(C2CC(=O)Oc3cc(C)[nH]c(=O)c32)c(OC)c1 (centres undefined),-20.1
18,O=S1(=O)c2ccccc2C2(CCN(Cc3cccnc3)C2)N1CC1CC1 (centres undefined),-11.1
19,Cc1cnn(CC2CCCCN2Cc2ncc(C(C)(C)C)o2)c1 (centres undefined),-7.03
20,CN(Cc1cnn(C)c1)Cc1nc(Cc2cccc(Cl)c2)no1,-7.96
21,Cc1ccc(N2CCCc3sc(C(=O)NCc4ccncc4)nc32)nn1,-1.89
22,CC(=O)N[C@@H]1CN(c2nc(C(N)=O)cs2)C[C@H]1c1ccc(C)o1,-15.3
23,CN1C[C@@H](N)C[C@H]1c1nc(-c2ccc3c(c2)OCO3)no1,-1.52

row,SMILES,cytotoxicity at 70.5 h [%]
1,CCN(Cc1cscn1)CC1(C)Cc2c(N)nc(N)nc2O1 (centres undefined),6.12
2,O=C(NS(=O)(=O)c1ccc(C2CCCCC2)cc1)C1COCCO1 (centres undefined),-4.85
3,CN(C)c1cc(C2CCCN2Cc2ccccc2OCC(=O)O)ccn1 (centres undefined),-6.83
4,Cc1ccc(NC(=O)N(C)Cc2cnn(C)c2)c(C)c1,-10.1
5,CC(C)N(C)[C@@H]1CCN(c2ncccn2)[C@H]1Cc1ccncc1,1.38
6,CCc1nnc2n1CCN(C(=O)COCCc1ccccc1)C2,-14.7
7,COCC(=O)N1CCCN(C(=O)C2Cc3ccccc3CN2C)CC1 (centres undefined),11.5
8,CN(C)CC1(O)CCN(S(=O)(=O)c2cccc(F)c2)C1 (centres undefined),-4.11
9,CCNc1cc2c(nn1)CCN(C(=O)c1ccc(CNC(C)=O)o1)C2,-5.9
10,CCN(C)C(=O)c1ccnn1-c1ccc2ccccn12,1.76
11,OCC1(O)CCN(Cc2ccc(-c3cc[nH]n3)s2)CC1,6.86
12,CC(C)c1nc(CN2CCN(C(=O)CN3CCOCC3)CC2)no1,28.7
13,O=C(CN1CCS(=O)(=O)CC1)Nc1ccc(N2CCCC2)nc1,-5.27
14,Cc1cc(C)n(CC(C)NCc2nncn2C2CCCCC2)n1 (centres undefined),-7.66
15,Cc1ccc(-c2noc(C3CCN3C(=O)c3ccn(C)n3)n2)s1 (centres undefined),1.02
16,CCN(Cc1nc2c(cnn2C)c(=O)[nH]1)c1ccccc1,3.68
17,CN(C(=O)Nc1cccc(C#N)c1)C1CCN(c2ccccn2)CC1,-8.89
18,C=C(C)C(=O)N1CCC(C(=O)c2cc(C)cnc2N)CC1,14.9
19,Cc1nocc1C(=O)N1CCOC2(COCCN(C(C)C)C2)C1 (centres undefined),-5.11
20,CN1CCN(Cc2cn3c(n2)CN(Cc2ccc(F)cc2)CC3)CC1,-9.1
21,CNS(=O)(=O)c1cccc(CNc2ccc(C(F)(F)F)nn2)c1,-3.47
22,COc1cccc(CNCCc2cccc(C(N)=O)c2)c1,-8.65
23,CCCSc1ncc(Cl)c(C(=O)NC(CCSC)C(=O)O)n1 (centres undefined),-7.81

row,SMILES,cytotoxicity at 70.5 h [%]
1,Cc1cccc(C2(C(=O)NCC(C)CN3CCCC3=O)CC2)c1 (centres undefined),-11.5
2,CCNc1cc2c(nn1)CCN(C(=O)Cc1ccc(C)s1)C2,0.997
3,Cc1ccc2cc(C3(O)CCN(C(=O)CN4CCCC4)CC3)ccc2n1,-3.01
4,CCc1ccccc1OC1CN(C(=O)c2ccnc(OC)c2)C1,11.1
5,O=C(O)CC(CC(=O)NCc1ccsc1)c1cccs1 (centres undefined),-5.7
6,COC[C@@H]1CCC[C@@]12CN(C(=O)C1CCOCC1)CCO2,-7.08
7,c1cncc(N2CCOCC3(CCCN(c4nncs4)C3)C2)c1 (centres undefined),-21.7
8,CC(C(=O)NC1CCCC1)S(=O)(=O)Cc1noc(C(C)(C)C)n1 (centres undefined),7.9
9,Cc1ccc(F)cc1S(=O)(=O)Nc1cnc(N2CCCC2)nc1,-9.37
10,CCN1CCN(C(C)CNC(=O)Nc2nnc(C)s2)CC1 (centres undefined),-10.5
11,CNCc1cn(CC2CCN(Cc3cccs3)CC2)nn1,22.5
12,CCOC(=O)NCC(=O)Nc1nc2ccccc2n1C(C)(C)C,5.06
13,CS(=O)(=O)N1CC(c2ncn3ccccc23)C1,-9.83
14,Cc1nn(CC(=O)N2CCCC2Cn2cccn2)c(C)c1Cl (centres undefined),9.12
15,c1cnc(NCc2noc3c2CN(C2CCOCC2)CC3)nc1,-10.6
16,Cc1ccc(C(=O)Oc2cc(=O)n3cccc(C)c3n2)cc1,15.3
17,Cc1nnn2c1COCC(CNC(=O)c1cnoc1C)C2 (centres undefined),0.126
18,O=C(c1sccc1C1CC1)N1CCN(Cc2cscn2)CC1,5.77
19,Cc1ccc(CN2CCOC3(CCCN(C(=O)c4ccco4)C3)C2)o1 (centres undefined),-5.05
20,c1ccc(CNCC2Cn3nnc(-c4ccncc4)c3CO2)nc1 (centres undefined),-4.04
21,Cc1nccn1C1CCCN(C(=O)c2ccc3c(c2)COC3)C1 (centres undefined),-3.92
22,Cc1cnn(CC2CCCN2C(=O)c2cccnc2-n2cncn2)c1 (centres undefined),-13.9
23,Cc1cnn(CCC(=O)N2CCCN(c3ncccc3C#N)CC2)c1,0.758

row,SMILES,cytotoxicity at 70.5 h [%]
1,CC(C)C(=O)Nc1cccc(OCC(=O)NCc2ccccc2F)c1,-5.29
2,CS(=O)(=O)N1C[C@@H]2COC[C@@H](CC(=O)N3CCCCO3)[C@@H]2C1,5.89
3,CC1=C[C@@H](CN2CCN(C)CC2)[C@H](C(C)C)C[C@H]1Cc1nnc(C)o1,-9.92
4,O=C(Cn1ccc2ccccc21)N1CCC(Oc2ncccc2Br)CC1,-3.13
5,COc1cc(CNCCn2cccn2)c2c(c1)CC(C)O2 (centres undefined),7.89
6,COC(=O)c1ccc(NC(=O)CNCc2ccco2)cc1,-5.33
7,CN1CCN(CCn2cnc3c(F)cccc3c2=O)CC1,-1.43
8,CC(C)Oc1ncc(C(=O)N2CCC(CC(N)=O)CC2)cc1Cl,-8.52
9,COc1ccc(CNC(=O)C2(C#N)CCCC2)cc1,12.6
10,Cc1ccccc1C(=O)N1CC(C(=O)NCC2CC2)C2(CCOCC2)C1 (centres undefined),-1.13
11,Cc1cccc(C(=O)N2CCCCC2c2ccc(CN(C)C)cc2)n1 (centres undefined),18.3
12,CN1CCC(NC(=O)C2CN(c3cncnc3)CCO2)CC1 (centres undefined),-7.93
13,COC1COC2(CCN(Cc3ccco3)CC2)C1 (centres undefined),-8.76
14,CCc1[nH]ncc1C(=O)N1CCCC(n2cncn2)C1 (centres undefined),1.79
15,CCc1nc(CN(C(C)=O)C2CCN(CCc3cccs3)C2)no1 (centres undefined),13
16,CCc1nc(C)c(C(=O)N2CCNCC2C(=O)Nc2ccc(C)nc2)o1 (centres undefined),-3.52
17,COc1ccccc1N1CCC(CNCc2ccc(C#N)cc2)C1 (centres undefined),2.02
18,CN1CCC(N(CCc2ccccc2)C(=O)c2cc[nH]c2)CC1,-7.32
19,CCN(Cc1cnn(C)c1)C[C@H]1CC[C@@H](Cc2ccc(C)nc2)O1,-16.5
20,Cc1csc(C2(NC(=O)NCCN3CCOCC3)CCC2)n1,-8.41
21,O[C@@H]1CN(Cc2ccncc2)C[C@H]1Oc1ccccc1,-5.71
22,CC(C)Cc1nc(COc2ccc(N(C)C(N)=O)cc2)no1,-2.35
23,CC(=O)N1CCC(c2nc3ccc(C)cn3n2)CC1,-0.807

row,SMILES,cytotoxicity at 70.5 h [%]
1,Cc1cc(NC(=O)NCc2cccnc2OC(C)C)n(C)n1,-6.35
2,CCCn1ccnc1-c1cccc(NC(=O)[C@H]2CCC(=O)N2)c1,1.18
3,Cc1ccc(CN(C)C(=O)c2ccc(NC3CC3)nc2)o1,-13.2
4,O=C([C@H]1CCCO1)N1CCCC2(CCN(Cc3ccncc3)C2=O)C1 (some centres undefined),22.1
5,CN(C)[C@H]1CCCCN(C(=O)COCc2nc3cc(F)ccc3[nH]2)C1,15
6,CN(Cc1ccc(F)cc1)CC1(O)CCN(C(=O)c2ccccc2)C1 (centres undefined),-2.54
7,CN(C)Cc1cc(-c2nccn2CCn2cccn2)ccc1O,-11.1
8,CN1CCC(N2CCOC3(CCCC3)C2)C1=O (centres undefined),5.41
9,Cc1cc(NC(=O)c2ccc(N3CCOCC3)cc2)[nH]n1,-1.56
10,Cc1ccccc1OC1CCN(CC(=O)Nc2cnn(C)c2C)CC1,-2.68
11,Cc1cnc(N2CCC(OCCN3CCCCC3)C2)nc1C (centres undefined),-4.38
12,O=S(=O)(c1cccs1)N1CCCC2(COCCN(c3cccnc3)C2)C1 (centres undefined),-1.65
13,COCCNC(=O)CN(C)C(C)c1nc(C)no1 (centres undefined),3.14
14,CC1CCN(S(=O)(=O)c2ccc(C(=O)N3CCSCC3)cc2)CC1,-13
15,Cc1ccc(NC2CCN(C(=O)c3c(C)oc(C)c3C)CC2)nn1,-10.8
16,O=C(O)c1cc(S(=O)(=O)N2CCOc3ccccc32)cc(Cl)c1Cl,-9.63
17,Cn1ccnc1CN1CCOC(Cc2ccccc2)C1 (centres undefined),-3.39
18,O=c1cc(-c2cccnc2)nc(-c2ccc(CN3CC[C@H](O)C3)cc2)[nH]1,9.56
19,Cc1noc(C)c1CN1CCCC2(CCN(CC3CCCC3)C2)C1 (centres undefined),-3.39
20,CC(C)(C)CN[C@@H]1CO[C@H](CNC(=O)Nc2ccccc2)[C@H]1O,-1.92
21,Cc1cc(C(F)(F)F)nn1CCCNC(=O)C1CCN(S(C)(=O)=O)CC1,-10.7
22,c1ccc2[nH]c(C3CCN(Cc4noc(C5CC5)n4)CC3)cc2c1,-3.83
